Reference: patent US5147865A, “Phosphonopyrrolidine- and piperidine-containing pseudopeptides of the statin type, a process for their preparation and their use as medicaments against retroviruses” (Bayer Aktiengesellschaft, priority 1990, dated 1992)

What was measured:
[1] = target: T1, HIV protease (Human immunodeficiency virus type 1 group M subtype B, UniProt P04585); experiment: HIV-specific protease enzyme test (RP-HPLC analysis of synthetic peptide cleavage); assay type: biochemical; details: purified HIV protease, synthetic peptide imitating a Gag precursor cleavage site; concentration causing 50% inhibition of protease activity
T1 construct: purified HIV protease was incubated with synthetic peptide
Procedure: This is confirmed using an HIV-specific protease enzyme test.
The results for the examples listed below were determined by the HIV test system described in the following literature reports [cf. Hansen, J., Billich, S., Schulze, T., Sukrow, S. and Molling, K. (1988), EMBO Journal, Vol. 7, No. 6, pages 1785-1791]: purified HIV protease was incubated with synthetic peptide which imitated a cleavage site in the Gag precursor protein and represented an in vivo cleavage site of the HIV protease. The resulting cleavage products of the synthetic peptide were analysed by means of reverse phase high performance liquid chromatography (RP-HPLC). The IC50 values given relate to the substance concentration which causes a 50% inhibition of protease activity under the abovementioned test conditions.

[2] = tested on: HIV-infected normal human blood lymphocytes (PBLs); experiment: HIV test in infected human blood lymphocytes (PBLs), syncytia formation, method of Pauwels et al.; assay type: cell-based; details: concentration at which 50% (about 10 syncytia) of the virus-induced syncytia were suppressed, day 3 to 6 after infection
Procedure: The HIV test was carried out with slight modifications by the method of Pauwels et al. (Journal of Virological Methods 20 (1988) 309-321).
Normal human blood lymphocytes (PBLs) were concentrated by means of Ficoll-Hypaque and stimulated with phytohaemagglutinin (90 μg/ml) and interleukin 2 (40 U/ml) in RPMI 1640 and 20% foetal calf serum. For infection with the infectious HIV, PBLs were pelleted and the cell pellet was then suspended in 1 ml of HIV virus adsorption solution and incubated at 37° C. for 1 hour.
The virus adsorption solution was centrifuged and the infected cell pellet was taken up in growth medium such that a concentration of 1×10^5 cells per ml was established. The cells infected in this way were pipetted into the wells of 96-well microtitre plates at a concentration of 1×10^4 cells/well. […]
The test batches were incubated at 37° C. until, in the untreated virus control, the syncytia formation typical for HIV occurred (between day 3 and 6 after infection), which was then evaluated microscopically.
The IC-50 values were determined as the concentration of the treated and infected cells at which 50% (about 10 syncytia) of the virus-induced syncytia were suppressed by treatment with the compound according to the invention.

Row | SMILES | IC50 [1] | IC50 [2]
1 | CCOP(=O)(OCC)C1CCCN1C(=O)C[C@H](O)[C@H](CC1CCCCC1)NC(=O)[C@@H](NC(=O)[C@H](Cc1cccc2ccccc12)CS(=O)(=O)C(C)(C)C)C(C)C (stereo partly drawn) [Example 14, Diethyl 1-{(3S,4S)-4-[(2S)-3-(tert-butylsulphonyl)2-(1-naphthylmethyl)propanoyl]-valinylamino-5-cyclohexyl-3-hydroxypentanoyl}-(2RorS)-2-(pyrrolidinyl)phosphonate] | 0.5 µM | –
2 | CCOP(=O)(OCC)C1CCCN1C(=O)C[C@H](O)[C@H](CC1CCCCC1)NC(=O)[C@H](Cc1ccccc1)NC(=O)Nc1cccc2ccccc12 (single isomer, unassigned) [Example 16, Diethyl 1-{(3S,4S)-5-cyclohexyl-3-hydroxy-4-(1-napthylaminocarbonyl)phenylalaninyl]aminopentanoyl}-(2R or S)-2-(pyrrolidinyl)phosphonate] | – | 4.3 µM
3 | CCOP(=O)(OCC)C1CCCN1C(=O)C[C@@H](O)[C@H](CC1CCCCC1)NC(=O)OC(C)(C)C (stereo partly drawn) [Example 28, Diethyl 1-{(3R,4S)-4-[(tert-butoxycarbonyl)amino]-5-cyclohexyl-3-hydroxypentanonyl]-(2R,S)-2-(pyrrolidinyl)phosphonate] | 10 µM | –
